The values below are quoted from earlier work in patent US4818687A (priority 1985, dated 1989).

The data set deals with human liver cancer.

Take `COc1cc2c(c3oc(=O)c4c(c13)CCC4=O)[C@@H]1C=CO[C@@H]1O2` [aflatoxin B1]: the “association with human liver cancer” value is reported as “statistically associated with increased incidence of human liver cancer”.
